Converted amounts (≈) assume the structure as drawn. Read-outs that look alike come from different tables or passages of the source.
Assays:
[1] = tested on: tsFT210 cells (mouse breast cancer cells CDC2 temperature sensitive strain); test: Growth-inhibiting activity against animal cells (WST-8), tsFT210; assay type: cell-based
Experimental: (§1) HL-60 cells (human acute promyelocytic leukemia cell line) and K562 cells (human chronic myeloid leukemia cell line) were maintained in a culture medium in which RPMI1640 medium (manufactured by Invitrogen) was added with 10% fetal bovine serum (manufactured by Nichirei), 0.5% penicillin/streptomycin solution (manufactured by Invitrogen) at 37° C. under a humidified culture of 5% CO2. tsFT210 cells (mouse breast cancer cells CDC2 temperature sensitive strain) were maintained in a culture medium in which RPMI1640 medium (manufactured by Invitrogen) was added with 5% calf serum (manufactured by Hyclone) and 0.5% penicillin/streptomycin solution at 32° C. under a humidified culture of 5% CO2.
(§2) HL-60 cells and K562 cells were seeded in a 96-well plate (manufactured by IWAKI) so as to be 1.5×10^4 cells/well/100 μl. tsFT210 cells were seeded in a 96-well plate so as to be 1.6×10^4 cell/well/100 μl. Each of the agents in Table 5 was added at 0.5% (v/v). HL-60 cells and K562 cells were maintained at 37° C. under a humidified culture of 5% CO2 and tsFT210 cells were maintain at 32° C. under a humidified culture of 5% CO2. Forty eight hours after addition of the agent, 10 μl of a reagent SF solution for counting live cells (WST-8 reagent, manufactured by Nakarai tesque) was added to each well. HL-60 cells and K562 cells were maintained at 37° C. under a humidified culture of 5% CO2 for 30 minutes and tsFT210 cells were maintain at 32° C. under a humidified culture of 5% CO2 for one hour. After the reaction, absorbance at 450 nm was measured using a microplate reader (manufactured by PerkinElmer) and a cell proliferation rate was determined from the measurement value.

[2] = tested on: HL-60 cells (human acute promyelocytic leukemia cell line); test: Growth-inhibiting activity against animal cells (WST-8), HL-60; assay type: cell-based; details: for IC50: Homo sapiens, read-out: HL60 IC50
Experimental: as §1, §2

[3] = tested on: Escherichia coli (HO141 strain); test: Growth-inhibiting activity against Escherichia coli; assay type: cell-based; details: 6 hours, absorbance at 600 nm, read-out: E. coli IC50
Experimental: Escherichia coli (HO141 strain) was precultured in culture medium of 0.5% Polypeptone, 0.5% Meat Extract, 0.3% NaCl, and 0.001% Sodium Dodecyl Sulfate (SDS) at 37° C. Absorbance at 600 nm was measured, and Escherichia coli solution was prepared such that the absorbance is 0.005 and seeded 100 μl each in a 96-well plate. Each of the agents in Table 5 was added at 0.5% (v/v) and maintained at 37° C. Six hours after addition of the agent, absorbance at 600 nm was measured using a microplate reader (manufactured by PerkinElmer) and a proliferation rate was determined from the measurement value.

[4] = tested on: K562 cells (human chronic myeloid leukemia cell line); test: Growth-inhibiting activity against animal cells (WST-8), K562; assay type: cell-based
Experimental: as §1, §2

[5] = tested on: Budding yeast (MLC30M strain); test: Growth-inhibiting activity against yeast; assay type: cell-based; details: Saccharomyces cerevisiae, read-out: Yeast IC50
Experimental: Budding yeast (MLC30M strain) was precultured in a culture medium of 2% Polypeptone, 1% yeast extract, 2% glucose, 0.02% adenine, and 0.001% sodium dodecyl sulfate (SDS) at 30° C. Absorbance at 600 nm was measured, and yeast solution was prepared such that the absorbance is 0.05 and seeded 100 μl each in a 96-well plate. Each of the agents in Table 5 was added at 0.5% (v/v) and maintained at 30° C. Eighteen hours after addition of the agent, absorbance at 600 nm was measured using a microplate reader (manufactured by PerkinElmer) and a proliferation rate was determined from the measurement value.

[6] = target: T1, Isoleucyl tRNA synthetase (Homo sapiens, UniProt P41252); test: Inhibitory activity against isoleucyl tRNA synthetase; assay type: biochemical; details: HT1080 cell lysate, [3H]isoleucine, 25° C., 20 minutes; read-out: IRS IC50 (converted)
T1 construct: 10 μg protein (HT1080 cell lysate); endogenous in cells; host or cells: HT1080 cell lysate
T1 sequence (P41252 1-1262): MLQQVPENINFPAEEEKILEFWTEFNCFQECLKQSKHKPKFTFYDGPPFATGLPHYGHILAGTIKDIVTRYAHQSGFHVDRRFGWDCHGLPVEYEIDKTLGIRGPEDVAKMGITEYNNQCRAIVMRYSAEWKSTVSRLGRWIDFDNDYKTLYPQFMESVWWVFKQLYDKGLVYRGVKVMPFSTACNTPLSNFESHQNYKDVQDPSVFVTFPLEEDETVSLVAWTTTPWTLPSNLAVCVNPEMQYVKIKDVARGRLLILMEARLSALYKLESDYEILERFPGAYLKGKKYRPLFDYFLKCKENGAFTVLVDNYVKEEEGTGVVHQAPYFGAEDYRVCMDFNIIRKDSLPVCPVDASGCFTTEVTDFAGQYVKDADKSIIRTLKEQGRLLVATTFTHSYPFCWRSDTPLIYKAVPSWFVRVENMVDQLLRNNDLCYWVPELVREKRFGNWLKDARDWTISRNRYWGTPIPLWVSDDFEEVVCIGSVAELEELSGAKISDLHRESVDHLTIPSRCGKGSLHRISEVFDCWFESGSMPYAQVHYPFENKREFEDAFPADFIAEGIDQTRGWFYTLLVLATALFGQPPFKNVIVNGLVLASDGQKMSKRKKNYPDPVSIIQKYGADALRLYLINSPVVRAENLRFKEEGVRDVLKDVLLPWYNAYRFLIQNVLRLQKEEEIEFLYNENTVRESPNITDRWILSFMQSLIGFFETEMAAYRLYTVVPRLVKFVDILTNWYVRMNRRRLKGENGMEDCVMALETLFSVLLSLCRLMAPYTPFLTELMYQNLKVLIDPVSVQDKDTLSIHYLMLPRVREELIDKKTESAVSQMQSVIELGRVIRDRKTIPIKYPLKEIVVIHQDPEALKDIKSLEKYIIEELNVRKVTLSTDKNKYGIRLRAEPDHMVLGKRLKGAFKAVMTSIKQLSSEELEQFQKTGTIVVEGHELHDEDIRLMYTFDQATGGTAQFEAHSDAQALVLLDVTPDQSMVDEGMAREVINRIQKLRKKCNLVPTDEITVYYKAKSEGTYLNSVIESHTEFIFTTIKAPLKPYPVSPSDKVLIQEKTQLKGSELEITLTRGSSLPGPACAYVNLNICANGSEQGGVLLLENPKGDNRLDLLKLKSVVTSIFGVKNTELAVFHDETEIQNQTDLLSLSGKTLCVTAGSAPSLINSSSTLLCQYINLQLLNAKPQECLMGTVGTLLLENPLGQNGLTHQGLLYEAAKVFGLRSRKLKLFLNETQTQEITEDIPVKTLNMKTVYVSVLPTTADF
Experimental: To a solution for enzymatic reaction [20 mM imidazole, pH 7.5, 75 mM MgCl2, 0.5 mM DTT, 1 U/ml tRNA (E. coli origin, manufactured by Sigma), 3 mM ATP, 1 μM isoleucine, 10 μCi/ml [^3H]isoleucine (manufactured by GE Healthcare), 10 μg protein (HT1080 cell lysate)], each of the agents in Table 5 was added at 1% (v/v) so as to attain a total amount of 100 μl and a reaction was carried out at 25° C. for 20 minutes. One mg/ml BSA solution (400 μl) and 10% TCA solution (500 μl) were then added thereto to terminate the reaction and left to stand at 4° C. overnight. A precipitate obtained by a centrifugal operation was transferred onto GF-C filter (manufactured by Whatman), washed three times with 5% TCA solution, followed by drying the filter. Two milliliters of aquasol-2 (manufactured by PerkinElmer) and the filter were placed in a vial and vigorously stirred, and then the amount of [^3H]isoleucine was measured by a liquid scintillation counter (manufactured by Beckman) to determine a rate of enzyme activity.

[7] = tsFT210 cells, 32° C., 48 hours after addition of the agent, WST-8, read-out: tsFT210 IC50
[8] = HL-60 cells, 48 hours after addition of the agent, WST-8
[9] = K562 cells, 48 hours after addition of the agent, WST-8, read-out: K562 IC50
[10] = MLC30M strain, 18 hours, absorbance at 600 nm
[11] = tsFT210, 48 h, read-out: tsFT210 IC50
[12] = K562, 48 h, read-out: K562 IC50

Row | SMILES | IC50 [1, 7] [µg/mL] | IC50 [2, 8] [µg/mL] | IC50 [3] [µg/mL] | IC50 [4, 9] [µg/mL] | IC50 [5, 10] [µg/mL] | IC50 [6] [µM] | IC50 [1, 11] [µg/mL] | IC50 ([2]; HL-60, 48 h) [µg/mL] | IC50 [4, 12] [µg/mL] | IC50 ([5]; 18 h) [µg/mL] | cancer cell growth-inhibiting activity (in words) ([2]; summary of Table 5 (HL60, K562, tsFT210), RM-T as compared with RM-A)
1 | CC(/C=C/[C@H](O)[C@@H](C)/C=C/C(=O)O)=C\C[C@H]1O[C@@]2(CC[C@H](C)[C@H](/C=C/C(C)=C/C(=O)O)O2)CC[C@@H]1C [SF-A, spirofungin A, reference compound] | > 30 | 1.2 (≈ 2.39 µM) | > 50 | 3.4 (≈ 6.76 µM) | 0.3 (≈ 0.597 µM) | – | – | – | – | – | –
2 | CCCCC1CCC2(CCC(C)C(C/C=C(C)/C=C/C(O)C(C)/C=C/C(=O)O)O2)OC1/C=C/C(C)=C/CC(O)CC (stereo not drawn) [RM-A1c] | – | – | > 50 | – | – | 16.8 | 6.4 (≈ 11.2 µM) | 6.3 (≈ 11 µM) | 3.4 (≈ 5.94 µM) | > 50 | –
3 | CC(/C=C/[C@H](O)[C@@H](C)/C=C/C(=O)O)=C\C[C@H]1O[C@]2(CC[C@H](C)[C@H](/C=C/C(C)=C/C(=O)O)O2)CC[C@@H]1C [SF-B, spirofungin B, reference compound] | > 30 | > 30 | > 50 | > 30 | 4 (≈ 7.96 µM) | – | – | – | – | – | –
4 | CCCCC1CCC2(CCC(C)C(C/C=C(C)/C=C/C(O)C(C)/C=C/C(=O)O)O2)OC1/C=C/C(C)=C/COC(=O)CC (stereo not drawn) [RM-A8a] | – | – | > 50 | – | – | – | 22.3 (≈ 38 µM) | 18 (≈ 30.7 µM) | 18.5 (≈ 31.5 µM) | > 50 | –
5 | CCCCC1CCC(CCC(C)C(O)C/C=C(C)/C=C/C(O)C(C)/C=C/C(=O)O)OC1/C=C/C(C)=C/CC(O)CC (stereo not drawn) [RM-A1b] | 17.4 (≈ 30.3 µM) | 7.4 (≈ 12.9 µM) | 31.9 (≈ 55.5 µM) | 21.1 (≈ 36.7 µM) | > 50 | – | – | – | – | – | –
6 | CCCCC(CCC(O)CCC(C)C(O)C/C=C(C)/C=C/C(O)C(C)/C=C/C(=O)O)C(O)/C=C/C(C)=C/CC(O)CC (stereo not drawn) [RM-A1a] | > 30 | 20.9 (≈ 35.3 µM) | > 50 | > 30 | > 50 | – | – | – | – | – | –
7 | CCCCC1CCC2(CCC(C)C(C/C=C(C)/C=C/C(O)C(C)/C=C/C(=O)O)O2)OC1/C=C/C(C)=C/CO (stereo not drawn) [RM-A6a] | – | – | 24.6 (≈ 46.3 µM) | – | – | – | 6.8 (≈ 12.8 µM) | 7 (≈ 13.2 µM) | 14.8 (≈ 27.9 µM) | 31.5 (≈ 59.4 µM) | –
8 | CCCC[C@@]1(OC(=O)CCC(=O)O)CC[C@]2(CC[C@H](C)[C@@H](C/C=C(C)/C=C/[C@H](O)[C@@H](C)/C=C/C(=O)O)O2)O[C@H]1/C=C/C(C)=C/CO [RM-A9a] | – | – | > 50 | – | – | – | 24.6 (≈ 38 µM) | 21 (≈ 32.5 µM) | 22.3 (≈ 34.5 µM) | 26.4 (≈ 40.8 µM) | –
9 | CCCCC(CCC(O)CCC(C)C(O)C/C=C(C)/C=C/C(O)C(C)/C=C/C(=O)O)C(O)/C=C/C(C)=C/C(=O)O (stereo not drawn) [RM-A1e] | > 30 | > 30 | > 50 | > 30 | 48.2 (≈ 85.3 µM) | – | – | – | – | – | –
10 | CCCC[C@H]1CC[C@]2(CC[C@H](C)[C@@H](C/C=C(C)/C=C/[C@H](O)[C@@H](C)/C=C/C(=O)OC)O2)O[C@H]1/C=C/C(C)=C/C(=O)O [RM-T methyl-ester] | – | – | > 50 | – | – | – | 8.2 (≈ 14.7 µM) | 0.9 (≈ 1.61 µM) | 2.5 (≈ 4.47 µM) | > 50 | high
11 | CCCCC(CCC(O)CCC(C)C(O)C/C=C(C)/C=C/C(O)C(C)/C=C/C(=O)O)C(O)C/C=C(C)/C=C/C(=O)CC (stereo not drawn) [RM-A2b] | > 30 | > 30 | > 50 | > 30 | > 50 | – | – | – | – | – | –

From US8980587B2, “Process for producing reveromycin A or a synthetic intermediate thereof, process for producing compounds containing a spiroketal ring and novel antineoplastics, fungicides and therapeutic agents for bone disorders” (RIKEN, priority 2010, dated 2015)
